The results in this text go back to patent US20230286960A1, “ALLOSTERIC CHROMENONE INHIBITORS OF PHOSPHOINOSITIDE 3-KINASE (PI3K) FOR THE TREATMENT OF DISEASE” (Petra Pharma Corporation, priority 2020, published 2023).

Sequence of human full length PIK3CA wild-type (p110α/p85α) (P42336 whole entry): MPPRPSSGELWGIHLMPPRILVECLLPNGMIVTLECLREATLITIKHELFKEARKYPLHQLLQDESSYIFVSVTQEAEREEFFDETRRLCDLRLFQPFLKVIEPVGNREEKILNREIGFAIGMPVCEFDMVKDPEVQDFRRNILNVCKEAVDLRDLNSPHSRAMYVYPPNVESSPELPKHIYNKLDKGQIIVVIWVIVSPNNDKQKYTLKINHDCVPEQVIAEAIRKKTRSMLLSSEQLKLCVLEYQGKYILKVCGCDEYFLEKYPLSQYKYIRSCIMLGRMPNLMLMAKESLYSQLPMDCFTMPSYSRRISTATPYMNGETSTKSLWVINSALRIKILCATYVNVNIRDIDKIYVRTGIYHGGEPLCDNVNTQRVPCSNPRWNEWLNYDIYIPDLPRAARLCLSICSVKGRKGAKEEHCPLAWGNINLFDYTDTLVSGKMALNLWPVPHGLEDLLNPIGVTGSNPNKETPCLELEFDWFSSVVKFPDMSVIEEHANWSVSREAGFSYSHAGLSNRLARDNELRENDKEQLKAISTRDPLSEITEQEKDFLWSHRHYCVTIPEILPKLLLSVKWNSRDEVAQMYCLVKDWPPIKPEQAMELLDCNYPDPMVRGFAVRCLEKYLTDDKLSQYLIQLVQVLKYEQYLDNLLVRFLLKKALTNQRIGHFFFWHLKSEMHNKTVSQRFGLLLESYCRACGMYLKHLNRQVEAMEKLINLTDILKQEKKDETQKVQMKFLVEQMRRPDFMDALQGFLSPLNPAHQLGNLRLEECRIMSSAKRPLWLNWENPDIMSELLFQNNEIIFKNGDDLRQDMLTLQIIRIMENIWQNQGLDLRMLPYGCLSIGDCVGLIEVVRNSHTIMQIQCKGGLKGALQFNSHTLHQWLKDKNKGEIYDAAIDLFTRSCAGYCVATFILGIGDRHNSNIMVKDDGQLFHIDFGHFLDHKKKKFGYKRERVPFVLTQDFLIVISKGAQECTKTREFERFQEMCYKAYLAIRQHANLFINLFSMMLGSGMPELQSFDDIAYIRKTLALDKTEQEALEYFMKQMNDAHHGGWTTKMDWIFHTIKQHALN
Sequence of human full length PIK3CA wild-type (p110α/p85α) (P27986 whole entry partner): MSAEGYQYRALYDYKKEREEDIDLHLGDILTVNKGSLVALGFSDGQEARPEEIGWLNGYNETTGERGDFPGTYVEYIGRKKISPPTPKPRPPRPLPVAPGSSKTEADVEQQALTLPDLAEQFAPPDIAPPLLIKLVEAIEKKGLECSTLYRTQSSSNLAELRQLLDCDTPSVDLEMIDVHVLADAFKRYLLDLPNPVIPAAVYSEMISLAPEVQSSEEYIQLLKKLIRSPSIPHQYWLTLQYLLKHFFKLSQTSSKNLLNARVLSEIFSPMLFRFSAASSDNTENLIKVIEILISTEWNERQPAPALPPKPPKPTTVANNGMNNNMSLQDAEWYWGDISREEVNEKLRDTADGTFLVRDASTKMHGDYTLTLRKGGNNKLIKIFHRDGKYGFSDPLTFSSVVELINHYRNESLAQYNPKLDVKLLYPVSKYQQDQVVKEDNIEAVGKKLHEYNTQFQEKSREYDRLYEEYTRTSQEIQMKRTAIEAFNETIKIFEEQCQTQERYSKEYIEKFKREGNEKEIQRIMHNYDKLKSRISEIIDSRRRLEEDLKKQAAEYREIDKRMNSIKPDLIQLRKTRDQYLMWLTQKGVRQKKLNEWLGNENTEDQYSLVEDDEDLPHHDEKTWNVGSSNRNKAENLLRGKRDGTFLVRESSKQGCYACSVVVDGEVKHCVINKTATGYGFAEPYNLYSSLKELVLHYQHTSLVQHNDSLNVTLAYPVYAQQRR

The first test concerns the target human full length PIK3CA wild-type (p110α/p85α) (Homo sapiens (Human), UniProt P42336). Kind of test: PI3K-alpha kinase (PIK3CA) activity, wild-type, Transcreener ADP2 FI assay. Particulars: PI3K-α (PIK3CA) biochemical. On the procedure:
(§1) PI3K-Alpha Kinase (PIK3CA) Activity, Wild-Type and H1047R Mutant and Determining IC50 Values for Inhibitors
(§2) Recombinant, catalytically active human full length PIK3KA Wild-type and H1047R mutant were purchased as 1:1 complex of N-terminal 6× his tagged p110 ? (catalytic) and untagged p85 ? (regulatory subunit) from EMD Millipore Sigma (cat. no. 14-602M and 14-792M, respectively). The enzyme stocks were diluted to 5× stocks in buffer (20 mM HEPES pH 7.4, 100 mM NaCl, 0.5 mM EGTA, 0.01% triton-x-100) just before use. PIP2diC8 (Avanti Polar Lipids Inc., cat. no. 850185) or phosphoinositol-4,5-bisphosphate with phosphoserine (PIP2:PS) membrane (Thermo Fisher Scientific, cat. no. PV5100) was used as lipid substrates. PIP2diC8 lyophilized powder and PIP2:PS (1:19) membrane stock (1 mM in PIP2) were separately dissolved in milliQ water to a concentration of 250 uM and stored in −20° C. 10 mM stocks of compounds were serially diluted (3×) in neat DMSO and stored in a dessicator at room temperature. 5× compound stocks in 25% DMSO were prepared fresh from neat DMSO stocks.
(§3) Wild-type (WT) and H1047R mutant protein, along with buffer components (except ATP), were incubated with or without compound at 27° C. for 1 h. After incubation, the reaction was initiated by the addition of 5 uL of 125 uM ATP. A typical assay mixture (25 uL) comprised 40 mM HEPES buffer, pH 7.4, 25 mM MgCl2, 0.01% v/v triton-X-100, 5% v/v DMSO, 20 mM NaCl, 1-5 nM wt or H1047R, 25 uM ATP, and 50 uM PIP2diC8 or PIP2 in membrane. The reaction was allowed to proceed until about […] (2.5 uM ADP) after which time, 10 uL of reaction mixture was quenched with 25 uL of transcreener reagent (Transcreener ADP2 FI assay kit, BellBrook labs, Cat. No. 3013). The contents were incubated at rt for 1 h and fluorescence was measured using a plate reader (Paradigm, Molecular Devices). The same assay was also run at pH 6.0 or 6.4 using MOPS buffer (Fisher BioReagents, CAS 1132-61-2). A calibration curve was generated under identical buffer conditions with varying ADP amounts. Using that, the observed fluorescence was converted to uM ADP. A plot between [ADP] and log[I] yielded the dose-response curves that enabled the calculation of IC50s.
As to `COc1cc(C(=O)O)c(NC(C)c2cc(C)cc3c(=O)cc(N4CCC(C)(C)CC4)oc23)cc1F` (stereo not drawn) [Example 1, 2-[1-[2-(4,4-Dimethyl-1-piperidyl)-6-methyl-4-oxo-chromen-8-yl]ethylamino]-4-fluoro-5-methoxy-benzoic acid], the IC50 (usually the concentration needed to halve the response being measured) is over 10000 nM.

Take `Cc1cc(C(C)Nc2ccsc2C(=O)O)c2oc(N3CCC(C)(C)CC3)cc(=O)c2c1` (stereo not drawn) [Example 39, 3-[1-[2-(4,4-Dimethyl-1-piperidyl)-6-methyl-4-oxo-chromen-8-yl]ethylamino]thiophene-2-carboxylic acid]: the IC50 is over 10000 nM.

Regarding `Cc1cc(C(C)Nc2ccccc2C(=O)O)c2oc(N3CCCC4(CNC(=O)C4)C3)cc(=O)c2c1` (stereo not drawn) [Example 61, 2-[1-[6-Methyl-4-oxo-2-(3-oxo-2,7-diazaspiro[4.5]decan-7-yl)chromen-8-yl]ethylamino]benzoic acid], the IC50 was over 10000 nM.

Regarding `Cc1cc(C(C)Nc2ccccc2C(=O)O)c2oc(N3CC(N(C)C)C3)cc(=O)c2c1` (stereo not drawn) [Example 68, 2-[1-[2-[3-(Dimethylamino)azetidin-1-yl]-6-methyl-4-oxo-chromen-8-yl]ethylamino]benzoic acid], the IC50 is over 10000 nM.

For another test, the target named is human full length PIK3CA H1047R mutant (p110α/p85α) (Homo sapiens (Human), UniProt P42336, H1047R). Description: PI3K-alpha kinase (PIK3CA) activity, H1047R mutant, Transcreener ADP2 FI assay. The following applies: PI3K-α (PIK3CA) biochemical. On the procedure: as §1, §2, §3
Sequence of human full length PIK3CA H1047R mutant (p110α/p85α) (P42336 whole entry H1047R): as the sequence (P42336 whole entry) above, with H1047R counted along it
Sequence of human full length PIK3CA H1047R mutant (p110α/p85α) (P27986 whole entry partner): as the sequence (P27986 whole entry partner) above
`CONC(=O)c1ccccc1NC(C)c1cc(C)cc2c(=O)cc(N3CCC(C)(C)CC3)oc12` (stereo not drawn) [Example 19, 2-[1-[2-(4,4-Dimethyl-1-piperidyl)-6-methyl-4-oxo-chromen-8-yl]ethylamino]-N-methoxy-benzamide] returned an IC50 of under 500 nM.

For the compound `Cc1cc(C(C)Nc2ccccc2-c2nnn[nH]2)c2oc(N3CCC(C)(C)CC3)cc(=O)c2c1` (stereo not drawn) [Example 20, 2-(4,4-Dimethyl-1-piperidyl)-6-methyl-8-[1-[2-(1H-tetrazol-5-yl)anilino]ethyl]chromen-4-one], the IC50 was under 500 nM.

The compound `CCc1c(N2CCC(C)(C)CC2)oc2c(C(C)Nc3ccccc3C(=O)O)cc(C)cc2c1=O` (stereo not drawn) [Example 55, 2-[1-[2-(4,4-dimethyl-1-piperidyl)-3-ethyl-6-methyl-4-oxo-chromen-8-yl]ethylamino]benzoic acid] displayed an IC50 of under 500 nM.

Compound `Cc1cc(C(C)Nc2ccccc2C(=O)O)c2oc(N3CCCC(C)(C)C3)cc(=O)c2c1` (stereo not drawn) [Example 65, 2-[1-[2-(3,3-Dimethyl-1-piperidyl)-6-methyl-4-oxo-chromen-8-yl]ethylamino]benzoic acid] gave an IC50 of under 500 nM.

In turn, `Cc1cc(C(C)Nc2ccccc2C(=O)O)c2oc(N3CC4(CCCCC4)C3)cc(=O)c2c1` (stereo not drawn) [Example 88, 2-[1-[2-(2-Azaspiro[3.5]nonan-2-yl)-6-methyl-4-oxo-chromen-8-yl]ethylamino]benzoic acid] displayed an IC50 of under 500 nM.

`Cc1cc(C(C)Nc2ccccc2C(=O)O)c2oc(N3Cc4ccc(F)cc4C3)cc(=O)c2c1` (stereo not drawn) [Example 105, 2-[1-[2-(5-Fluoroisoindolin-2-yl)-6-methyl-4-oxo-chromen-8-yl]ethylamino]benzoic acid] gave an IC50 of under 500 nM.

For `Cc1cc(C(C)Nc2ccccc2C(=O)O)c2oc(N3CCn4cccc4C3)cc(=O)c2c1` (stereo not drawn) [Example 171, 2-[1-[2-(3,4-Dihydro-1H-pyrrolo[1,2-a]pyrazin-2-yl)-6-methyl-4-oxo-chromen-8-yl]ethylamino]benzoic acid], the IC50 is under 500 nM.

In the case of `Cc1cc(C(C)Nc2ccccc2C(=O)O)c2oc(N3CC4CC(C4)C3)cc(=O)c2c1` (stereo not drawn) [Example 177, 2-[1-[2-(3-Azabicyclo[3.1.1]heptan-3-yl)-6-methyl-4-oxo-chromen-8-yl]ethylamino]benzoic acid 2,2,2-trifluoroacetic acid], the IC50 is under 500 nM.

In the case of `Cc1cc(C(C)Nc2ccccc2C(=O)O)c2oc(N3CC(C(C)(F)F)C3)cc(=O)c2c1` (stereo not drawn) [Example 189, 2-[1-[2-[3-(1,1-Difluoroethyl)azetidin-l-yl]-6-methyl-4-oxo-chromen-8-yl]ethylamino]benzoic acid 2,2,2-trifluoroacetic acid], the IC50 was under 500 nM.

`Cc1cc(C(C)Nc2ccccc2C(=O)O)c2oc(N3CCc4ccccc4C3)cc(=O)c2c1` (stereo not drawn) [Example 233, 2-[1-[2-(3,4-Dihydro-1H-isoquinolin-2-yl)-6-methyl-4-oxo-chromen-8-yl]ethylamino]benzoic acid] had an IC50 of under 500 nM.

`Cc1cc(C(C)Nc2sc(Cl)nc2C(=O)O)c2oc(N3Cc4ccccc4C3)cc(=O)c2c1` (stereo not drawn) [Example 245, 2-Chloro-5-[1-(2-isoindolin-2-yl-6-methyl-4-oxo-chromen-8-yl)ethylamino]thiazole-4-carboxylic acid 2,2,2-trifluoroacetic acid] displayed an IC50 of under 500 nM.

Take `Cc1cc([C@@H](C)Nc2ccccc2C(=O)O)c2oc(N3CCC(C#N)(c4ccccc4)CC3)c(C)c(=O)c2c1` [Example 288, 2-[[(1R)-1-[2-(4-Cyano-4-phenyl-1-piperidyl)-3,6-dimethyl-4-oxo-chromen-8-yl]ethyl]amino]benzoic acid]: the 50% inhibitory concentration (IC50) is under 500 nM.

The compound `Cc1cc([C@@H](C)Nc2ccccc2C(=O)O)c2oc(N3CC4(CCC4(F)F)C3)c(C)c(=O)c2c1` [Example 289, 2-[[(1R)-1-[2-(7,7-Difluoro-2-azaspiro[3.3]heptan-2-yl)-3,6-dimethyl-4-oxo-chromen-8-yl]ethyl]amino]benzoic acid] came in with an IC50 of under 500 nM.

`Cc1cc(C(C)Nc2ccc(Cl)nc2C(=O)O)c2oc(N3Cc4ccc(F)cc4C3)cc(=O)c2c1` (stereo not drawn) [Example 297, 6-Chloro-3-[1-[2-(5-fluoroisoindolin-2-yl)-6-methyl-4-oxo-chromen-8-yl]ethylamino]pyridine-2-carboxylic acid]: the 50% inhibitory concentration (IC50) was under 500 nM.

`Cc1cc(C(C)Nc2ccc(Cl)nc2C(=O)O)c2oc(N3Cc4ccc5c(c4C3)OCO5)cc(=O)c2c1` (stereo not drawn) [Example 299, 6-Chloro-3-[1-[2-(6,8-dihydro-[1,3]dioxolo[4,5-e]isoindol-7-yl)-6-methyl-4-oxo-chromen-8-yl]ethylamino]pyridine-2-carboxylic acid]: the IC50 is under 500 nM.

As to `Cc1cc(C(C)Nc2ccc(Cl)nc2C(=O)O)c2oc(N3CCC4(CC3)CC4)c(C)c(=O)c2c1` (stereo not drawn) [Example 302, 3-[1-[2-(6-Azaspiro[2.5]octan-6-yl)-3,6-dimethyl-4-oxo-chromen-8-yl]ethylamino]-6-chloro-pyridine-2-carboxylic acid], the IC50 was under 500 nM.

`Cc1cc([C@@H](C)Nc2ccccc2C(=O)O)c2oc(N3CCCCC3)cc(=O)c2c1` [Example 376, 2-[[(1R)-1-[6-Methyl-4-oxo-2-(1-piperidyl)chromen-8-yl]ethyl]amino]benzoic acid] came in with a half-maximal inhibitory concentration (IC50) of under 500 nM.

The compound `CC(Nc1ccccc1C(=O)O)c1cc(C(F)(F)F)cc2c(=O)cc(N3CCC(F)(F)CC3)oc12` (stereo not drawn) [Example 396, 2-[1-[2-(4,4-Difluoro-1-piperidyl)-4-oxo-6-(trifluoromethyl)chromen-8-yl]ethylamino]benzoic acid 2,2,2-trifluoroacetic acid] yielded an IC50 of under 500 nM.

Compound `CC(Nc1ccccc1C(=O)O)c1cc(F)cc2c(=O)cc(N3CCC4(CC3)CC4)oc12` (stereo not drawn) [Example 398, 2-[1-[2-(6-Azaspiro[2.5]octan-6-yl)-6-fluoro-4-oxo-chromen-8-yl]ethylamino]benzoic acid 2,2,2-trifluoroacetic acid] came in with an IC50 of under 500 nM.

Compound `CC(Nc1ccccc1C(=O)O)c1cc(F)cc2c(=O)cc(N3CCC(F)(F)CC3)oc12` (stereo not drawn) [Example 399] yielded an IC50 of under 500 nM.
